Where two headings read alike, the source gives them in different places.
What was measured:
canine keratinocytes [1] = assay: In vitro ceramide synthesis assay (14C-serine incorporation); assay type: cell-based; conditions: stated as 'has been shown'; FIGS. 2, 3, 7, 8
Method: Canine keratinocytes were obtained via explant culture of skin samples taken from healthy adult animals (4 mm biopsy). Samples are washed and dissected in cold PBS containing antibiotics. The epidermis is dissected away from the dermis and cut into 1 mm^2 pieces. The pieces of epidermis are then placed into individual wells of a 24 well collagen-coated plastic plate and briefly allowed to dry down (60 seconds). Green's medium supplemented with 10% fetal bovine serum is then added and the explants cultured for 7-10 days until keratinocytes begin growing out of the edges of the skin. The primary skin cells are now detached from the plastic and explant tissue using trypsin and moved onto a i3T3 (irradiated fibroblast) feeder layer. Cells are expanded on the feeder layer until near confluent at which time they can be moved onto plastic alone. The primary keratinocytes can be used for assays at this point or further expanded in number as required. Keratinocytes are seeded in collagen-coated 24 well plates at a density of 5×10^4 cells per well. These cells are allowed to settle overnight and then the media changed. Cells are then left for 4 days under proliferation promoting culture conditions (in the presence of bovine pituitary extract). Following the 4 days the media is changed to one that promotes differentiation and at this stage the supplement to be tested is added (see individual experiments). Following 6 days under these conditions [^14C]-Serine is added for the ceramide assay or [^14C]-Acetate added for the total lipid assay, in both cases at 0.5 microCi per well. Cells are incubated in the presence of the radioactive markers and supplement for 2 days. At the end of the incubation period cells were harvested using trypsin and washed using PBS. Lipids were subsequently extracted using Bligh-Dyer solution and then added to 4 ml of scintillation fluid. The radioactivity was counted with a liquid scintillation spectrometer. Results for the ceramide synthesis assays are seen in FIGS. 1-6. Results for total lipid synthesis assays are seen in FIGS. 7-8. […]

canine keratinocytes [2] = conditions: stated as 'known to'; FIG. 5; cited from earlier work

| Compound | epidermal ceramide synthesis (canine keratinocytes [1]) | epidermal ceramide synthesis (canine keratinocytes [2]) |
| --- | --- | --- |
| N[C@@H](Cc1c[nH]cn1)C(=O)O [Histidine, histidine] | increase |  |
| NC(=O)c1cccnc1 [Nicotinamide, nicotinamide] | increase |  |
| O=C(O)[C@@H]1CCCN1 [Proline, proline] | increase |  |
| Cc1ncc(CO)c(CO)c1O [Pyridoxine, pyridoxine] |  | increase |
